In the supplement of paper PMC10307832:

How the values were obtained:
Assay in all cases: relative viability (nuclei count vs DMSO), 5 days (fraction); higher = more cells survive
Bortezomib + Foretinib = compound: CC(C)C[C@H](NC(=O)[C@H](Cc1ccccc1)NC(=O)c1cnccn1)B(O)O [Bortezomib] + COc1cc2c(Oc3ccc(NC(=O)C4(C(=O)Nc5ccc(F)cc5)CC4)cc3F)ccnc2cc1OCCCN1CCOCC1 [Foretinib] (partner 0.25 µM)
How it was run: (§1)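 A single step with final 0.05% Triton X-100, 1% formaldehyde and 1 ug/ml Hoechst fixed the cells and stained nuclei 5 days after treatment. Lung cancer cell lines in 1536-well plates had been treated by pin tool the day after seeding with one drug alone or a fixed anchor-drug dose plus five library-drug doses (not always all listed) in √10 steps, and nuclei were counted on 4× images. Relative viability is the ratio of nuclei in treated wells to nuclei in vehicle wells, taken as the median of duplicate plates.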

Bortezomib + Pemetrexed = compound: CC(C)C[C@H](NC(=O)[C@H](Cc1ccccc1)NC(=O)c1cnccn1)B(O)O [Bortezomib] + Nc1nc2[nH]cc(CCc3ccc(C(=O)N[C@@H](CCC(=O)O)C(=O)O)cc3)c2c(=O)[nH]1 [Pemetrexed] (partner 0.2 µM)
How it was run: as §1

[1] = compound: CC1=CC(=NN1)NC2=CC(=NC(=N2)/C=C/C3=CC=CC=C3)N4CCN(CC4)C + CC(C)C[C@H](NC(=O)[C@H](Cc1ccccc1)NC(=O)c1cnccn1)B(O)O [Bortezomib] (partner 0.002 µM)
How it was run: as §1

[2] = compound: CC1=CC(=NN1)NC2=CC(=NC(=N2)/C=C/C3=CC=CC=C3)N4CCN(CC4)C + COc1cccc2cc(-c3nc([C@H]4CC[C@H](C(=O)O)CC4)n4ncnc(N)c34)[nH]c12 [OSI-027] (partner 0.5 µM)
How it was run: as §1

Cell Line	relative viability (Bortezomib + Foretinib; first compound 0.0002 µM)	relative viability (Bortezomib + Foretinib; first compound 0.000632 µM)	relative viability (Bortezomib + Foretinib; first compound 0.002 µM)	relative viability (Bortezomib + Foretinib; first compound 0.006325 µM)	relative viability (Bortezomib + Foretinib; first compound 0.02 µM)	relative viability (Bortezomib + Pemetrexed; first compound 0.0002 µM)	relative viability (Bortezomib + Pemetrexed; first compound 0.000632 µM)	relative viability (Bortezomib + Pemetrexed; first compound 0.002 µM)	relative viability (Bortezomib + Pemetrexed; first compound 0.006325 µM)	relative viability (Bortezomib + Pemetrexed; first compound 0.02 µM)	relative viability ([1]; first compound 0.08 µM)	relative viability ([1]; first compound 0.253 µM)	relative viability ([1]; first compound 0.8 µM)	relative viability ([1]; first compound 2.53 µM)	relative viability ([1]; first compound 8 µM)	relative viability ([2]; first compound 0.08 µM)	relative viability ([2]; first compound 0.253 µM)	relative viability ([2]; first compound 0.8 µM)	relative viability ([2]; first compound 2.53 µM)	relative viability ([2]; first compound 8 µM)
NCI-H2087	0.972	0.975	0.794	0.0688	0.059	0.626	0.761	0.63	0.0855	0.0402	0.792	1.03	0.818	0.648	0.11	0.622	0.295	0.537	0.196	0.109
COR-L 105	0.997	1	0.995	0.262	0.255	1.03	1.12	1.13	0.494	0.303	0.744	0.988	0.76	0.263	0.231	0.773	0.834	0.678	0.255	0.178
LCLC-97TM1	0.906	0.929	0.721	0.242	0.151	0.189	0.17	0.16	0.166	0.0769	0.742	0.57	0.77	0.114	0.0579	0.427	0.335	0.564	0.192	0.2
NCI-H520	0.871	0.773	0.58	0.184	0.148	0.511	0.785	0.3	0.17	0.139	0.487	0.599	0.395	0.154	0.11	0.289	0.286	0.214	0.165	0.128
NCI-H1993	0.802	0.755	0.912	0.648	0.479	0.701	0.585	0.627	0.395	0.391	1.08	–	1.2	0.781	0.391	0.514	0.484	0.478	0.457	0.414
NCI-H1437	1.31	1.24	1.32	0.185	0.149	0.284	0.301	0.351	0.172	0.157	0.621	0.554	0.656	0.247	0.0909	0.84	0.89	0.947	0.737	0.164
NCI-H522	–	–	–	–	–	1.29	1.04	1.08	0.442	0.35	–	–	–	–	–	0.709	0.629	0.609	0.56	0.421
ABC-1	0.917	0.874	0.284	0.229	0.204	–	–	–	–	–	0.418	0.268	0.303	0.257	0.205	0.453	0.54	0.644	0.179	0.143
NCI-H1703	0.324	0.342	0.211	0.153	0.176	–	–	–	–	–	0.261	0.319	0.236	0.174	0.117	–	–	–	–	–
NCI-H2170	1.02	0.952	1.03	0.596	0.167	0.271	0.256	0.286	0.263	0.136	–	–	–	–	–	0.759	0.728	0.683	0.377	0.189
NCI-H1648	–	–	–	–	–	0.62	0.592	0.753	0.468	0.334	–	–	–	–	–	0.257	0.272	0.26	0.263	0.258
NCI-H1793	0.611	0.617	0.666	0.512	0.155	0.762	–	0.867	0.616	0.211	–	–	–	–	–	0.301	0.204	0.26	0.107	0.0726
NCI-H727	0.809	0.694	0.93	0.603	0.169	–	–	–	–	–	0.841	0.586	0.867	0.463	0.255	0.608	0.485	0.678	0.398	0.278
NCI-H1792	–	–	–	–	–	0.656	0.837	0.827	0.4	0.057	0.863	0.999	0.919	0.84	0.0942	0.678	0.777	0.673	0.519	0.206
SW 900	0.87	0.743	0.155	0.119	0.126	0.476	0.485	0.224	0.169	0.152	–	–	–	–	–	0.493	0.58	0.489	0.259	0.0615
EBC-1	0.11	0.106	0.0957	0.0676	0.0605	–	–	–	–	–	0.523	0.557	0.427	0.264	0.158	–	–	–	–	–
NCI-H1395	1.01	0.927	0.759	0.341	0.328	0.77	0.767	0.579	0.26	0.264	–	–	–	–	–	0.56	0.621	0.625	0.387	0.26
LK-2	0.982	1.39	1.12	0.161	0.165	0.285	0.324	0.221	0.365	0.28	–	–	–	–	–	0.207	0.222	0.179	0.171	0.124
NCI-H1299	1.09	1.06	1.17	0.416	0.121	–	–	–	–	–	1	1.05	1	0.854	0.211	–	–	–	–	–
A549	0.87	1.01	0.986	0.0286	0.0217	–	–	–	–	–	–	–	–	–	–	–	–	–	–	–
NCI-H1623	0.831	0.992	0.803	0.473	0.344	–	–	–	–	–	–	–	–	–	–	0.412	0.41	0.411	0.377	0.282
IA-LM	1.26	1.1	1.16	0.0393	0.0142	–	–	–	–	–	0.74	0.897	1.14	0.463	0.121	–	–	–	–	–
